Counter-ions that a name gives are not always drawn.
What follows are compounds tested against NLRP3 (Homo sapiens (Human), UniProt Q96P20) (assay: THP-1 cells pyroptosis assay (LPS + nigericin, resazurin read-out)). Details: 1 μg/ml LPS, 5 μM nigericin.
Format: cell-based
Description: THP-1 cells (ATCC #TIB-202) were grown in RPMI containing L-glutamine (Gibco 15 #11835) supplemented with 1 mM sodium pyruvate (Sigma #S8636) and penicillin (100 units/ml)/streptomycin (0.1 mg/ml) (Sigma #P4333) in 10% Fetal Bovine Serum (FBS) (Sigma #F0804). The cells were routinely passaged and grown to confluency (˜10^6 cells/ml). On the day of the experiment, THP-1 cells were harvested and resuspended into RPMI medium (without FBS). The cells were then counted and viability (>90%) checked by Trypan blue (Sigma #T8154). Appropriate dilutions were made to give a concentration of 625,000 cells/ml. To this diluted cell solution was added LPS (Sigma #[4524) to give a 1 μg/ml Final Assay Concentration (FAC). 40μ of the final preparation was aliquoted into each well of a 96-well plate. The plate thus prepared was used for compound screening.
The following method step-by-step assay was followed for compound screening. • 1. Seed THP-1 cells (25,000 cells/well) containing 1.0 μg/ml LPS in 40μ of RPMI medium (without FBS) in 96-well, black walled, clear bottom cell culture plates coated with poly-D-lysine (VWR #734-0317) • 2. Add 5 μl compound (8 points half-log dilution, with […]) or vehicle (DMSO 0.1% FAC) to the appropriate wells • 3. Incubate for 3 hrs at 37° C. and 5% CO2 • 4. Add 5 μl nigericin (Sigma #N7143) (FAC 5 μM) to all wells • 5. Incubate for 1 hr at 37° C. and 5% CO2 • 6. At the end of the incubation period, spin plates at 300×g for 3 mins and remove supernatant • 7. Then add 50 μl of resazurin (Sigma #R7017) (FAC 100 μM resazurin in RPMI medium without FBS) and incubate plates for a further 1-2 hrs at 37° C. and 5% CO2 • 8. Plates were read in an Envision reader at Ex 560 nm and Em 590 nm • 9. IC50 data is fitted to a non-linear regression equation (log inhibitor vs response-variable slope 4-parameters)

NLRP3, sequence (Q96P20 whole entry): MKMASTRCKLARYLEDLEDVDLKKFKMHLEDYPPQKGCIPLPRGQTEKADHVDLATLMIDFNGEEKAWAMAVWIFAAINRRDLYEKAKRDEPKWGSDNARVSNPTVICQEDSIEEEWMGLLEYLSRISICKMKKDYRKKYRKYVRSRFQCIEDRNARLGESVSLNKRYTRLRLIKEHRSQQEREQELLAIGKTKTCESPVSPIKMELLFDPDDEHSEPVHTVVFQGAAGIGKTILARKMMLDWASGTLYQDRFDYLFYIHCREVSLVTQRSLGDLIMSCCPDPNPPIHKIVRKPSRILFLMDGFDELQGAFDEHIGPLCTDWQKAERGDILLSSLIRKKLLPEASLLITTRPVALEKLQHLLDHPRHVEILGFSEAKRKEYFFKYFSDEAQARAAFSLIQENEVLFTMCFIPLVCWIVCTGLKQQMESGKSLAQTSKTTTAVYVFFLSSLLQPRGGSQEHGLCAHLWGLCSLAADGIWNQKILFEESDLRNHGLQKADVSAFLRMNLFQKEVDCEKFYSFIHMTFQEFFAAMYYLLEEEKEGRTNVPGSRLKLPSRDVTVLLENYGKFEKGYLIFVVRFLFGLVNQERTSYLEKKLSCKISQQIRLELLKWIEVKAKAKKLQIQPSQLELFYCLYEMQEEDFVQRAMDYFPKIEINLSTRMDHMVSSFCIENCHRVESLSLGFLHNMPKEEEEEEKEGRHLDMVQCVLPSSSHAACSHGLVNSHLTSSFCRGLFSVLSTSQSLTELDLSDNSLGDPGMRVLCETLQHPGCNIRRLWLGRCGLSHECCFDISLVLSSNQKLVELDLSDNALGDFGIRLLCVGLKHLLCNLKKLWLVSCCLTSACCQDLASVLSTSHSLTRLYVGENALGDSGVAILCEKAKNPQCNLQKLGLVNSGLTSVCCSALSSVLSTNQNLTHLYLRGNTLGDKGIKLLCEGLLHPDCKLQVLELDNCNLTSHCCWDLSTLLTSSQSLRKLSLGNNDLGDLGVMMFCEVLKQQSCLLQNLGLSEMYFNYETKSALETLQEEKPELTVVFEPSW

Row | Structure (SMILES) | IC50
1 | CCC(=O)N1CCC(S(=O)(=O)NC(=O)Nc2c3c(cc4c2CCC4)CCC3)CC1 [Example 10, N-((1,2,3,5,6,7-Hexahydro-s-indacen-4-yl)carbamoyl)-1-propionylpiperidine-4-sulfonamide, potassium salt] | 1 to 10 µM
2 | CC(C)C(=O)N1CCC(S(=O)(=O)NC(=O)Nc2c3c(cc4c2CCC4)CCC3)CC1 [Example 11, N-((1,2,3,5,6,7-Hexahydro-s-indacen-4-yl)carbamoyl)-1-isobutyrylpiperidine-4-sulfonamide, potassium salt] | 1 to 10 µM
3 | COCC(=O)N1CCC(S(=O)(=O)NC(=O)Nc2c3c(cc4c2CCC4)CCC3)CC1 [Example 12, N-((1,2,3,5,6,7-Hexahydro-s-indacen-4-yl)carbamoyl)-1-(2-methoxyacetyl)piperidine-4-sulfonamide, potassium salt] | 1 to 10 µM
4 | N#CCN1CCC(S(=O)(=O)NC(=O)Nc2c3c(cc4c2CCC4)CCC3)CC1 [Example 14, 1-(Cyanomethyl)-N-((1,2,3,5,6,7-hexahydro-s-indacen-4-yl)carbamoyl)piperidine-4-sulfonamide, potassium salt] | 1 to 10 µM
5 | O=C(Nc1c2c(cc3c1CCC3)CCC2)NS(=O)(=O)C1CCN(C2CCC2)CC1 [Example 15, 1-Cyclobutyl-N-((1,2,3,5,6,7-hexahydro-s-indacen-4-yl)carbamoyl)piperidine-4-sulfonamide, potassium salt] | 1 to 10 µM
6 | CCCN1CCC(S(=O)(=O)NC(=O)Nc2c3c(cc4c2CCC4)CCC3)CC1 [Example 19, N-((1,2,3,5,6,7-Hexahydro-s-indacen-4-yl)carbamoyl)-1-propyl piperidine-4-sulfonamide, potassium salt] | 1 to 10 µM
7 | O=C(Nc1c2c(cc3c1CCC3)CCC2)NS(=O)(=O)C1CCN(C2COC2)CC1 [Example 20, N-((1,2,3,5,6,7-Hexahydro-s-indacen-4-yl)carbamoyl)-1-(oxetan-3-yl)piperidine-4-sulfonamide, potassium salt] | 1 to 10 µM
8 | COC(=O)CN1CCC(S(=O)(=O)NC(=O)Nc2c3c(cc4c2CCC4)CCC3)CC1 [Example 21, Methyl 2-(4-(N-((1,2,3,5,6,7-Hexahydro-s-indacen-4-yl)carbamoyl)sulfamoyl)piperidin-1-yl)acetate, potassium salt] | 1 to 10 µM
9 | O=C(Nc1c2c(cc3c1CCC3)CCC2)NS(=O)(=O)C1CCN(CCF)CC1 [Example 22, 1-(2-Fluoroethyl)-N-((1,2,3,5,6,7-hexahydro-s-indacen-4-yl)carbamoyl)piperidine-4-sulfonamide, potassium salt] | 1 to 10 µM
10 | O=C(Nc1c2c(cc3c1CCC3)CCC2)NS(=O)(=O)C1CCN(C2CC2)CC1 [Example 23, 1-Cyclopropyl-N-((1,2,3,5,6,7-hexahydro-s-indacen-4-yl)carbamoyl)piperidine-4-sulfonamide, potassium salt] | 1 to 10 µM
11 | O=C(Nc1c2c(cc3c1CCC3)CCC2)NS(=O)(=O)C1CCN(C(=O)C2CCC2)CC1 [Example 25, 1-(Cyclobutanecarbonyl)-N-((1,2,3,5,6,7-hexahydro-s-indacen-4-yl)carbamoyl)piperidine-4-sulfonamide, potassium salt] | 1 to 10 µM
12 | O=C(Nc1c2c(cc3c1CCC3)CCC2)NS(=O)(=O)C1CCCN(C(=O)NC2CCC2)C1 (stereo not drawn) [Example 27, N-Cyclobutyl-3-(N-((1,2,3,5,6,7-hexahydro-s-indacen-4-yl)carbamoyl)sulfamoyl)piperidine-1-carboxamide, potassium salt] | 1 to 10 µM
13 | CS(=O)(=O)N1CCC(S(=O)(=O)NC(=O)Nc2c3c(cc4c2CCC4)CCC3)CC1 [Example 29, N-((1,2,3,5,6,7-Hexahydro-s-indacen-4-yl)carbamoyl)-1-(methylsulfonyl)piperidine-4-sulfonamide, potassium salt] | 1 to 10 µM
14 | CN1CCC(S(=O)(=O)NC(=O)Nc2c3c(cc4c2CCC4)CCC3)C1 (stereo not drawn) [Example 36, N-((1,2,3,5,6,7-Hexahydro-s-indacen-4-yl)carbamoyl)-1-methylpyrrolidine-3-sulfonamide, potassium salt] | 1 to 10 µM
15 | CN(C)C(=O)N1CCC(S(=O)(=O)NC(=O)Nc2c3c(cc4c2CCC4)CCC3)C1 (stereo not drawn) [Example 40, 3-(N-((1,2,3,5,6,7-Hexahydro-s-indacen-4-yl)carbamoyl)sulfamoyl)-N,N-dimethylpyrrolidine-1-carboxamide] | 1 to 10 µM
16 | O=C(Nc1c2c(cc3c1CCC3)CCC2)NS(=O)(=O)C1CN2CCC1CC2 (stereo not drawn) [Example 43, N-((1,2,3,5,6,7-Hexahydro-s-indacen-4-yl)carbamoyl) quinuclidine-3-sulfonamide, potassium-salt] | 1 to 10 µM
17 | CCN1CCC(N2CCC(S(=O)(=O)NC(=O)Nc3c4c(cc5c3CCC5)CCC4)C2)CC1 (stereo not drawn) [Example 44, 1-(1-Ethylpiperidin-4-yl)-N-((1,2,3,5,6,7-hexahydro-s-indacen-4-yl)carbamoyl)pyrrolidine-3-sulfonamide, potassium salt] | 1 to 10 µM
18 | CC(C)N1CCC(S(=O)(=O)NC(=O)Nc2c3c(cc4c2CCC4)CCC3)CC1 [Example 47, N-((1,2,3,5,6,7-Hexahydro-s-indacen-4-yl)carbamoyl)-1-iso-propylpiperidine-4-sulfonamide, potassium salt] | 1 to 10 µM
19 | CCN1CCC(N2CCC(S(=O)(=O)NC(=O)Nc3c4c(cc5c3CCC5)CCC4)CC2)CC1 [Example 48, 1′-Ethyl-N-((1,2,3,5,6,7-hexahydro-s-indacen-4-yl)carbamoyl)-[1,4′-bipiperidine]-4-sulfonamide, potassium salt] | 1 to 10 µM
20 | CCN1CC2(CC(S(=O)(=O)NC(=O)Nc3c4c(cc5c3CCC5)CCC4)C2)C1 [Example 50, 2-Ethyl-N-((1,2,3,5,6,7-hexahydro-s-indacen-4-yl)carbamoyl)-2-azaspiro[3.3]heptane-6-sulfonamide, potassium salt] | 1 to 10 µM
21 | CC(C)N1CC(N2CCC(S(=O)(=O)NC(=O)Nc3c4c(cc5c3CCC5)CCC4)C2)C1 (stereo not drawn) [Example 51, N-((1,2,3,5,6,7-Hexahydro-s-indacen-4-yl)carbamoyl)-1-(1-isopropylazetidin-3-yl)pyrrolidine-3-sulfonamide, potassium salt] | 1 to 10 µM
22 | O=C(Nc1c2c(cc3c1CCC3)CCC2)NS(=O)(=O)C1CCN(C(=O)C(F)(F)F)C1 (stereo not drawn) [Example 54, N-((1,2,3,5,6,7-Hexahydro-s-indacen-4-yl)carbamoyl)-1-(2,2,2-trifluoroacetyl)pyrrolidine-3-sulfonamide, potassium salt] | 1 to 10 µM
23 | O=C(Nc1c2c(cc3c1CCC3)CCC2)NS(=O)(=O)C1CCCN(CC2CC2)C1 (stereo not drawn) [Example 57, 1-(Cyclopropylmethyl)-N-((1,2,3,5,6,7-hexahydro-s-indacen-4-yl)carbamoyl)piperidine-3-sulfonamide, potassium salt] | 1 to 10 µM
24 | N#CCN1CCCC(S(=O)(=O)NC(=O)Nc2c3c(cc4c2CCC4)CCC3)C1 (stereo not drawn) [Example 58, 1-(Cyanomethyl)-N-((1,2,3,5,6,7-hexahydro-s-indacen-4-yl)carbamoyl)piperidine-3-sulfonamide, potassium salt] | 1 to 10 µM
25 | C#CCN1CCCC(S(=O)(=O)NC(=O)Nc2c3c(cc4c2CCC4)CCC3)C1 (stereo not drawn) [Example 59, N-((1,2,3,5,6,7-Hexahydro-s-indacen-4-yl)carbamoyl)-1-(prop-2-yn-1-yl)piperidine-3-sulfonamide, potassium salt] | 1 to 10 µM
26 | CN1CCCC(S(=O)(=O)NC(=O)Nc2c3c(cc4c2CCC4)CCC3)C1 (stereo not drawn) [Example 60, N-((1,2,3,5,6,7-Hexahydro-s-indacen-4-yl)carbamoyl)-1-methylpiperidine-3-sulfonamide, potassium salt] | 1 to 10 µM
27 | CN(C)C(=O)N1CCC(S(=O)(=O)NC(=O)Nc2c3c(cc4c2CCC4)CCC3)CC1 [Example 61, 4-(N-((1,2,3,5,6,7-Hexahydro-s-indacen-4-yl)carbamoyl)sulfamoyl)-N,N-dimethylpiperidine-1-carboxamide] | 1 to 10 µM
28 | CC(C)N1CC(N2CCC(S(=O)(=O)NC(=O)Nc3c4c(cc5c3CCC5)CCC4)CC2)C1 [Example 62, N-((1,2,3,5,6,7-Hexahydro-s-indacen-4-yl)carbamoyl)-1-(1-isopropylazetidin-3-yl)piperidine-4-sulfonamide, potassium salt] | 1 to 10 µM
29 | CC(C)N1CC2(CC(S(=O)(=O)NC(=O)Nc3c4c(cc5c3CCC5)CCC4)C2)C1 [Example 63, N-((1,2,3,5,6,7-Hexahydro-s-indacen-4-yl)carbamoyl)-2-isopropyl-2-azaspiro[3.3]heptane-6-sulfonamide, potassium salt] | 1 to 10 µM
30 | CN1CC2(CC(S(=O)(=O)NC(=O)Nc3c4c(cc5c3CCC5)CCC4)C2)C1 [Example 64, N-((1,2,3,5,6,7-Hexahydro-s-indacen-4-yl)carbamoyl)-2-methyl-2-azaspiro[3.3]heptane-6-sulfonamide, potassium salt] | 1 to 10 µM

Source: US20250115591A1, “NOVEL SULFONAMIDE CARBOXAMIDE COMPOUNDS” (INFLAZOME LIMITED, priority 2017, published 2025)
